{
  "source": "paper PMC7687008",
  "about": "“Small molecule inhibitors provide insights into the relevance of LAT1 and LAT2 in materno‐foetal amino acid transport” (Journal of Cellular and Molecular Medicine, 2020)",
  "key": {"[1]": {"molecular_target": "LAT1/LAT2 (System L transporters) in BeWo-CTB cells (Homo sapiens, UniProt Q01650)", "sequence (Q01650 whole entry)": "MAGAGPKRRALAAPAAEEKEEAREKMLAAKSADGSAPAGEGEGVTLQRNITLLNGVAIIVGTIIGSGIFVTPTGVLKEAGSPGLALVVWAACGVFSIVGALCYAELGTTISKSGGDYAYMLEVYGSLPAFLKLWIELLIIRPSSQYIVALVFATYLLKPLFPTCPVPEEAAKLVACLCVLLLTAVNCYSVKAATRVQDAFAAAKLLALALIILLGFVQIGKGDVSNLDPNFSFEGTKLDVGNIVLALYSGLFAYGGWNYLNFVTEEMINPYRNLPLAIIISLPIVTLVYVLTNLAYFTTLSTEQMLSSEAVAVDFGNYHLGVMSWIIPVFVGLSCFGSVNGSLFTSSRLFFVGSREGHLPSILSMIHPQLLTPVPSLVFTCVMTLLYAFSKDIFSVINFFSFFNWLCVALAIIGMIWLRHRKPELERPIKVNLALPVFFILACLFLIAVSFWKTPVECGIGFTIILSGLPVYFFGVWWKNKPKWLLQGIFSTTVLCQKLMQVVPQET", "sequence (P08195 103-630 partner)": "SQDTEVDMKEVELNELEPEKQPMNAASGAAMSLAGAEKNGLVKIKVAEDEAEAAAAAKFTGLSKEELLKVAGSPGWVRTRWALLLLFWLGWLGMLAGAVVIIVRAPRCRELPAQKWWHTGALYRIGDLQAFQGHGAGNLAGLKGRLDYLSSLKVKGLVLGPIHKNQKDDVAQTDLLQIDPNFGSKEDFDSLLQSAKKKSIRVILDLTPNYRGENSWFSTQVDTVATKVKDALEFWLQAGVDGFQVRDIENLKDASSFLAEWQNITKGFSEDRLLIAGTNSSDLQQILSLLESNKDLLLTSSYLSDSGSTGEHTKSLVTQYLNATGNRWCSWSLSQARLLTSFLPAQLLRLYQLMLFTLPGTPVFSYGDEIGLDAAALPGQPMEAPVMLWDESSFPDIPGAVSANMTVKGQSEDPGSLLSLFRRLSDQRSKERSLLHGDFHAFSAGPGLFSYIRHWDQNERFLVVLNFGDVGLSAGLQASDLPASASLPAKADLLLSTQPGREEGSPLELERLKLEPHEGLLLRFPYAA", "assay": "Leucine uptake inhibition in BeWo-CTB (undifferentiated BeWo cells), Na+-free buffer, 3H-leucine", "assay_type": "cell-based", "details": "for EC50: 3 min"}, "[2]": {"tested_on": "LAT1/LAT2 (System L transporters) in BeWo-STB cells", "assay": "Leucine uptake inhibition in BeWo-STB (forskolin-differentiated BeWo cells), Na+-free buffer, 3H-leucine", "assay_type": "cell-based, human", "details": "for EC50 / inhibition of leucine uptake: BeWo-STB; for EC50: 3 min; for residual leucine uptake: 10 µM; for inhibition of leucine uptake: 10 µmol/L inhibitor", "experimental": "(§1) BeWo cells (clone b30) were cultured in DMEM containing 1.0 g/L glucose (DMEM‐lowGlucose; Gibco). […] Cells were cultured in DMEM‐lowGlucose at 37°C with 5% CO2 atmosphere for 7‐14 days.\nJPH203, JG336 and JX009 were synthesized following the routes described in the European Patent Application EP 2‐959‐918‐A1, 2014. Compounds were obtained as hydrochlorides, dissolved in dimethyl sulfoxide (DMSO, Merck, Darmstadt, Germany) and applied in the concentration range from 0.001 to 31.6 μmol/L. JPH203 has been characterized as highly LAT1‐specific; JX009 is described as LAT1 and LAT2‐specific inhibitor. ^37 JG336 is a derivate of JPH203 with an additional methoxy group at the peripheral phenyl moiety residue. Compound structures are depicted in Figure 4. The ^1H‐NNMR and ^13C‐NMR spectra data of the compounds were in agreement with the expected structures and are included in the Supporting Information.\nFIGURE 4 Inhibition of leucine uptake in BeWo cells using small molecule inhibitors with different specificities. Dose‐response experiments in BeWo‐cytotrophoblasts (BeWo‐CTB) and forskolin‐stimulated BeWo‐syncytiotrophoblasts (BeWo‐STB) for the established LAT1‐specific inhibitor JPH203 (A) and for the alternative compound JG336 which carries an additional methoxy group as marked in the dashed red box (B). […] BCH is a widely accepted inhibitor blocking all System L mediated transport. […] (A‐C) The new inhibitors JG336 and JX009 as well as JPH203 reached maximal inhibition (first concentration without significant difference to the bottom value) at a concentration of 10 µmol/L, JG336 required 1 µmol/L for maximal inhibition in BeWo‐CTB. BCH reached maximal inhibition at 1 mmol/L in both differentiation stages. […] Dose‐response kinetics were calculated using the nonlinear four‐parameter model [Y = Bottom + (Top − Bottom)/(1 + 10^((LogEC50‐X)*HillSlope))] and ordinary fit with GraphPad Prism software."}, "[3]": {"molecular_target": "SLC7 transporters in HT-29 cells (Homo sapiens, UniProt Q01650)", "sequence (Q01650 whole entry)": "as the sequence (Q01650 whole entry) above", "sequence (P08195 102-630 partner)": "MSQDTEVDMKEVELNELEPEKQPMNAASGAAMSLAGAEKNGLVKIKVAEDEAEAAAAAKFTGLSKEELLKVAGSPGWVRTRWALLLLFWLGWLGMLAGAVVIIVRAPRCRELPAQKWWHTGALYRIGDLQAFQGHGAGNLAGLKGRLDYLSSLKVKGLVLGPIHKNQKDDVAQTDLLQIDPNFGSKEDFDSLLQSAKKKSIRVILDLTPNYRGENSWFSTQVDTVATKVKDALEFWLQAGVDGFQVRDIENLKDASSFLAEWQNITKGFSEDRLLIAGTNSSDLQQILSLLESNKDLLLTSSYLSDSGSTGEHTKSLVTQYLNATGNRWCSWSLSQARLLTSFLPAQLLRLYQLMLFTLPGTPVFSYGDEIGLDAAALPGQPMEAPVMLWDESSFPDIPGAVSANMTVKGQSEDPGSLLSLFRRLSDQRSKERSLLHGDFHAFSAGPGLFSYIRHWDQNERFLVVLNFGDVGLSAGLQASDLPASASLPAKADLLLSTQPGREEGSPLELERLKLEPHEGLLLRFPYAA", "assay": "Leucine uptake inhibition in HT-29 cells", "details": "for EC50: EC50 of leucine uptake inhibition, Na+-free Hanks buffer"}, "Caco-2 cells": {"tested_on": "Caco-2 cells", "parameters": "method as in PMID 21914964", "details": "cited from earlier work"}, "[4]": {"tested_on": "LAT1/LAT2 (System L transporters) in polarized BeWo monolayer", "assay": "Leucine transfer across polarized BeWo monolayer (Transwell), apical to basal, and intracellular leucine content", "assay_type": "cell-based, human", "experimental": "as §1\nBefore starting the transfer experiment, the formation of a tight trophoblast monolayer in BeWo cells was monitored by measuring transepithelial electrical resistance (TEER, [Ω*cm^2]) and passive diffusion as reported previously. ^38 TEER and cellular capacitance (Ccl, [µF/cm^2]) were measured every 30 minutes and analysed using the cellZscope system (nanoAnalytics, Münster, Germany) according to the manufacturer's instructions. The apparent permeability coefficient (Papp, [cm/s]) was calculated by measuring the rates of passive transfer of the paracellular pathway marker Lucifer yellow (LY) as previously described. ^39 BeWo monolayers with verified tightness were selected after 7 days of culturing on Transwell® membranes and randomly assigned to leucine transfer time courses and inhibition experiments. […] Radioactivity was quantified using Tri‐carb 2100TR Liquid Scintillation Counter (PerkinElmer).\nFIGURE 5 Relevance of LAT1 and System L inhibition in leucine transfer across the placental barrier in vitro. A, Leucine transfer across a tight BeWo monolayer was measured from the apical (ie upper compartment) towards the basal (ie lower compartment) side during 6 h using the Transwell® system. […]"}, "[5]": {"details": "167 µmol/L leucine, Na+-free Hank's buffer, read-out: EC50 of leucine uptake inhibition"}, "[6]": {"details": "167.2 µmol/L leucine, four-parameter fit, read-out: EC50 (best-fit value in Figure 4)"}, "[7]": {"details": "BeWo-CTB, 167 µmol/L leucine, Na+-free Hank's buffer, read-out: EC50 of leucine uptake inhibition"}, "[8]": {"details": "BeWo-CTB, 167.2 µmol/L leucine, four-parameter fit, read-out: EC50 (best-fit value in Figure 4)"}},
  "note": "Values joined by “and” are separate entries in the source; they are usually repeats but may differ in a detail not shown here. Equal values may be shown once. “Also recorded” adds a separate entry of the source. Read-outs that look alike come from different tables or passages of the source.",
  "data": [
    {"smiles": "NC1(C(=O)O)CC2CCC1C2", "note": "(stereo not drawn) [BCH, 2‐amino‐2‐norbornane‐carboxylic acid]", "values": [
      {"measurement": "Bottom of dose-response fit (leucine uptake at maximal inhibition)", "setting": "[1]; BeWo-CTB, four-parameter fit", "value": 0, "unit": "nmol/mg protein"},
      {"measurement": "Top of dose-response fit (leucine uptake)", "setting": "[1]; BeWo-CTB, four-parameter fit", "value": 5.305, "unit": "nmol/mg protein"},
      {"measurement": "EC50", "setting": "[1]; read-out: EC50 (best-fit value in Figure 4), BeWo-CTB, 167.2 µmol/L leucine, four-parameter fit", "value": 709000, "unit": "nM"},
      {"measurement": "EC50", "setting": "[1]; read-out: EC50 of leucine uptake inhibition, BeWo-CTB, 167 µmol/L leucine, Na+-free Hank's buffer", "value": 709000, "unit": "nM"},
      {"measurement": "Bottom of dose-response fit (leucine uptake at maximal inhibition)", "setting": "[2]", "value": 0, "unit": "nmol/mg protein"},
      {"measurement": "Top of dose-response fit (leucine uptake)", "setting": "[2]", "value": 9.770, "unit": "nmol/mg protein"},
      {"measurement": "times less effective than JX009", "setting": "[2]", "value": "> 100", "unit": "times"},
      {"measurement": "EC50", "setting": "[2]; [5]", "value": 442000, "unit": "nM"},
      {"measurement": "EC50", "setting": "[2]; [6]", "value": 442000, "unit": "nM"}
    ]},
    {"smiles": "COc1ccc(-c2nc3cc(N)cc(COc4c(Cl)cc(C[C@H](N)C(=O)O)cc4Cl)c3o2)cc1", "note": "[JG336]", "values": [
      {"measurement": "concentration required for maximal inhibition", "setting": "[1]; BeWo-CTB", "value": 1, "unit": "µmol/L"},
      {"measurement": "EC50", "setting": "[1]; [7]", "value": 800, "unit": "nM"},
      {"measurement": "EC50", "setting": "[1]; [8]", "value": 799, "unit": "nM"},
      {"measurement": "Bottom of dose-response fit (leucine uptake at maximal inhibition)", "setting": "[1]; BeWo-CTB, four-parameter fit", "value": 0.622, "unit": "nmol/mg protein"},
      {"measurement": "Top of dose-response fit (leucine uptake)", "setting": "[1]; BeWo-CTB, four-parameter fit", "value": 2.673, "unit": "nmol/mg protein"},
      {"measurement": "Bottom of dose-response fit (leucine uptake at maximal inhibition)", "setting": "[2]", "value": 3.212, "unit": "nmol/mg protein"},
      {"measurement": "Top of dose-response fit (leucine uptake)", "setting": "[2]", "value": 8.534, "unit": "nmol/mg protein"},
      {"measurement": "concentration reaching maximal inhibition (first concentration without significant difference to bottom value)", "setting": "[2]", "value": 10, "unit": "µmol/L"},
      {"measurement": "residual leucine uptake", "setting": "[2]", "value": 3.2, "unit": "nmol/mg protein"},
      {"measurement": "inhibition of leucine uptake", "setting": "[2]", "value": "62.4% and 62%"},
      {"measurement": "EC50", "setting": "[2]; [5]", "value": "1990 nM and 2000 nM"},
      {"measurement": "EC50", "setting": "[2]; [6]", "value": 1990, "unit": "nM"},
      {"measurement": "extent of leucine uptake inhibition", "setting": "[3]; 167µM leucine", "value": "complete leucine uptake inhibition"},
      {"measurement": "EC50", "setting": "[3]; 30µM leucine", "value": 210, "unit": "nM"},
      {"measurement": "EC50", "setting": "[3]; 167µM leucine, 3min", "value": 730, "unit": "nM"}
    ]},
    {"smiles": "Nc1cc(COc2c(Cl)cc(C[C@H](N)C(=O)O)cc2Cl)c2oc(-c3ccccc3)nc2c1", "note": "[JPH203]", "values": [
      {"measurement": "permeability (membrane and cell layer)", "setting": "Caco-2 cells", "value": "has been shown"},
      {"measurement": "EC50", "setting": "[1]; [7]", "value": 3100, "unit": "nM"},
      {"measurement": "EC50", "setting": "[1]; [8]", "value": 3080, "unit": "nM"},
      {"measurement": "Bottom of dose-response fit (leucine uptake at maximal inhibition)", "setting": "[1]; BeWo-CTB, four-parameter fit", "value": 0.716, "unit": "nmol/mg protein"},
      {"measurement": "Top of dose-response fit (leucine uptake)", "setting": "[1]; BeWo-CTB, four-parameter fit", "value": 3.888, "unit": "nmol/mg protein"},
      {"measurement": "Bottom of dose-response fit (leucine uptake at maximal inhibition)", "setting": "[2]", "value": 3.758, "unit": "nmol/mg protein"},
      {"measurement": "Top of dose-response fit (leucine uptake)", "setting": "[2]", "value": 8.593, "unit": "nmol/mg protein"},
      {"measurement": "concentration reaching maximal inhibition (first concentration without significant difference to bottom value)", "setting": "[2]", "value": 10, "unit": "µmol/L"},
      {"measurement": "residual leucine uptake", "setting": "[2]", "value": 3.8, "unit": "nmol/mg protein"},
      {"measurement": "inhibition of leucine uptake", "setting": "[2]", "value": "56.3% and 56%"},
      {"measurement": "EC50", "setting": "[2]; [5]", "value": "2550 nM and 2600 nM"},
      {"measurement": "extent of leucine uptake inhibition", "setting": "[3]; 167µM leucine", "value": "complete leucine uptake inhibition"},
      {"measurement": "EC50", "setting": "[3]; 30µM leucine", "value": 150, "unit": "nM"},
      {"measurement": "EC50", "setting": "[3]; 167µM leucine, 3min", "value": 2170, "unit": "nM"}
    ]},
    {"smiles": "CN(C)c1ccc(-c2cccc(Oc3cccc(C[C@H](N)C(=O)O)c3)c2)cn1", "note": "[JX009]", "values": [
      {"measurement": "decrease of intracellular 3H-leucine content of BeWo monolayer", "setting": "[4]; 10 µM", "value": "no effect"},
      {"measurement": "decrease of intracellular 3H-leucine content of BeWo monolayer", "setting": "[4]; 10 µmol/L, end of transfer experiment (6 hours)", "value": "intracellular leucine retention; also recorded: unchanged"},
      {"measurement": "inhibition of leucine uptake", "setting": "[1]; BeWo-CTB (regardless of differentiation stage)", "value": 87, "unit": "%"},
      {"measurement": "EC50", "setting": "[1]; [7]", "value": "3900 nM and < 4000 nM"},
      {"measurement": "EC50", "setting": "[1]; [8]", "value": 3860, "unit": "nM"},
      {"measurement": "Bottom of dose-response fit (leucine uptake at maximal inhibition)", "setting": "[1]; BeWo-CTB, four-parameter fit", "value": 0.774, "unit": "nmol/mg protein"},
      {"measurement": "Top of dose-response fit (leucine uptake)", "setting": "[1]; BeWo-CTB, four-parameter fit", "value": 4.066, "unit": "nmol/mg protein"},
      {"measurement": "Bottom of dose-response fit (leucine uptake at maximal inhibition)", "setting": "[2]", "value": 1.093, "unit": "nmol/mg protein"},
      {"measurement": "Top of dose-response fit (leucine uptake)", "setting": "[2]", "value": 8.426, "unit": "nmol/mg protein"},
      {"measurement": "concentration reaching maximal inhibition (first concentration without significant difference to bottom value)", "setting": "[2]", "value": 10, "unit": "µmol/L"},
      {"measurement": "inhibition of leucine uptake", "setting": "[2]", "value": 87, "unit": "%"},
      {"measurement": "EC50", "setting": "[2]; [5]", "value": "2350 nM and 2300 nM"},
      {"measurement": "EC50", "setting": "[2]; [6]", "value": 2350, "unit": "nM"},
      {"measurement": "extent of leucine uptake inhibition", "setting": "[3]; 167µM leucine", "value": "complete leucine uptake inhibition"},
      {"measurement": "EC50", "setting": "[3]; 30µM leucine", "value": 600, "unit": "nM"},
      {"measurement": "EC50", "setting": "[3]; 167µM leucine, 3min", "value": 3760, "unit": "nM"}
    ]}
  ]
}
